Measurements as given in patent US8063225B2, “Tricyclic compound derivatives useful in the treatment of neoplastic diseases, inflammatory disorders and immunomodulatory disorders” (Chembridge Corporation, priority 2006, dated 2011).

Columns and labels:
Ba/F3 = assay: Cell proliferation inhibition, Cell Titer-Glo, Ba/F3; format: cell-based; conditions: Mus musculus, BaF3; cell proliferation assay, Ba/F3 cells
Summary of the method: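 Ba/F3 cells were seeded at 2500-5000 cells per well in white, clear-bottomed 384-well culture plates and exposed to serial dilutions of test compounds for 3 days. Cell Titer-Glo Luminescent Cell Viability Assay (Promega) reagent, which measures total ATP as an indicator of metabolic activity, was added. Luminescence was read on a multiwell plate reader to derive IC50 values for inhibition of proliferation.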

Jak2 = molecular target: T1, Jak2 (Homo sapiens, UniProt O60674); assay: Tyrosine kinase assay (Kinase-Glo or AlphaScreen), Jak2; conditions: biochemical tyrosine kinase assay
T1 construct: 6×His- or GST-tagged kinase domain fragments of the corresponding RTKs expressed in baculovirus system; host or cells: baculovirus system
Summary of the method: (§1)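 Recombinant His- or GST-tagged kinase domains from baculovirus were assayed with poly(Glu-Tyr, 4:1) substrate and 10 μM ATP in Tris-HCl pH 7.5 with Mg2+/Mn2+. Kinase-Glo: 37° C for 60 minutes, residual ATP read by luminescence. IC50 from non-linear regression over eight concentrations, 1 nM to 20 μM.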

IGF1R tyrosine kinase = molecular target: T2, IGF1R tyrosine kinase (Homo sapiens, UniProt P08069); assay: IGF1R tyrosine kinase assay (Kinase-Glo ATP depletion or PT66/PT100 AlphaScreen); conditions: biochemical tyrosine kinase assay
T2 construct: 6×His- or GST-tagged kinase domain fragments of the corresponding RTKs expressed in baculovirus system; host or cells: baculovirus system
Summary of the method: as §1

T2 sequence (P08069 999-1274 limits assumed): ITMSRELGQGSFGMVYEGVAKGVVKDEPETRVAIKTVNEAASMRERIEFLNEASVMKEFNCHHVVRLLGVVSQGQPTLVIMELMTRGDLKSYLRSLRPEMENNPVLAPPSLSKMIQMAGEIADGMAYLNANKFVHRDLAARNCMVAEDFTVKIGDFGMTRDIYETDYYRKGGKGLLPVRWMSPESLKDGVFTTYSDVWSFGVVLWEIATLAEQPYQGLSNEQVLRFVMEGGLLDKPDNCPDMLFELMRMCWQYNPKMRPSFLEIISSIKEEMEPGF
T1 sequence (O60674 849-1124 limits assumed, species assumed): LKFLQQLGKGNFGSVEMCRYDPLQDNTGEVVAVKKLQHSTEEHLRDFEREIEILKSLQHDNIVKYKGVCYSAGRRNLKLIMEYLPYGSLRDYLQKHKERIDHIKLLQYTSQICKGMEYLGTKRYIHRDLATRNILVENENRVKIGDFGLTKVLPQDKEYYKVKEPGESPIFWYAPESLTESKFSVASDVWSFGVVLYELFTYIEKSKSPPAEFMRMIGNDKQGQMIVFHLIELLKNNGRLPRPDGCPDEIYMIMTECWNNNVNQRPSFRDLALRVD

Structure (SMILES) | IC50 (Ba/F3) | IC50 (Jak2) | IC50 (IGF1R tyrosine kinase)
COc1ccc(OC[C@H](O)CNc2cc[nH]c(=O)c2-c2nc3cc4c(cc3[nH]2)C(=O)N(C2CCN(C)CC2)C4=O)c(OC)c1OC [compound 93] | > 15 µM | > 15 µM | < 0.5 µM
Cc1cc(C)c(OC[C@H](O)CNc2cc[nH]c(=O)c2-c2nc3cc4c(cc3[nH]2)C(=O)N(C2CCN(C)CC2)C4=O)c(C)c1 [compound 98] | > 15 µM | 5 to 15 µM | < 0.5 µM
C[C@H](O)CN1C(=O)c2cc3nc(-c4c(NC[C@@H](O)c5cccc(Cl)c5)cc[nH]c4=O)[nH]c3cc2C1=O [compound 31] | > 15 µM | 5 to 15 µM | 5 to 15 µM
O=C1c2cc3nc(-c4c(NC[C@@H](O)c5cccc(Cl)c5)cc[nH]c4=O)[nH]c3cc2C(=O)N1[C@@H]1CN2CCC1CC2 [compound 33] | > 15 µM | 0.5 to 5 µM | < 0.5 µM
O=C1c2cc3nc(-c4c(NC[C@@H](O)c5cccc(Cl)c5)cc[nH]c4=O)[nH]c3cc2C(=O)N1CCc1ccncc1 [compound 28] | > 15 µM | 5 to 15 µM | > 15 µM
O=C1c2cc3nc(-c4c(NC[C@@H](O)c5cccc(Cl)c5)cc[nH]c4=O)[nH]c3cc2C(=O)N1[C@H]1CN2CCC1CC2 [compound 34] | > 15 µM | 0.5 to 5 µM | < 0.5 µM
CN1CCC(N2C(=O)c3cc4nc(-c5c(NC[C@@H](O)COc6cccc(Cl)c6F)cc[nH]c5=O)[nH]c4cc3C2=O)CC1 [compound 96] | > 15 µM | 5 to 15 µM | 0.5 to 5 µM
O=C1c2cc3nc(-c4c(NC[C@@H](O)c5cccc(Cl)c5)cc[nH]c4=O)[nH]c3cc2C(=O)N1C[C@@H]1CCCO1 [compound 29] | 5 to 15 µM | > 15 µM | > 15 µM
Cc1ccc(OC[C@@H](O)CNc2cc[nH]c(=O)c2-c2nc3cc4c(cc3[nH]2)C(=O)N([C@@H]2CCN(C)C2)C4=O)c(C)c1 [compound 107] | > 15 µM | 0.5 to 5 µM | < 0.5 µM
CC(C)(CO)CN1C(=O)c2cc3nc(-c4c(NC[C@@H](O)c5cccc(Cl)c5)cc[nH]c4=O)[nH]c3cc2C1=O [compound 26] |  | 0.5 to 5 µM | 0.5 to 5 µM
Cc1ccc(OC[C@H](O)CNc2cc[nH]c(=O)c2-c2nc3cc4c(cc3[nH]2)C(=O)N(C2CCN(C)CC2)C4=O)cc1Cl [compound 99] | > 15 µM | 0.5 to 5 µM | < 0.5 µM
Cc1ccc(OC[C@@H](O)CNc2cc[nH]c(=O)c2-c2nc3cc4c(cc3[nH]2)C(=O)N([C@H]2CCN(C)C2)C4=O)c(C)c1 [compound 106] | 5 to 15 µM | 0.5 to 5 µM | < 0.5 µM
Cc1ccc2c(ccn2C[C@H](O)CNc2cc[nH]c(=O)c2-c2nc3cc4c(cc3[nH]2)C(=O)N(C2CCN(C)CC2)C4=O)c1 [compound 131] | > 15 µM | 0.5 to 5 µM | 5 to 15 µM
Cc1cc(C)c(OC[C@H](O)CNc2cc[nH]c(=O)c2-c2nc3cc4c(cc3[nH]2)C(=O)N(C2CCN(C)CC2)C4=O)cc1Cl [compound 108] | > 15 µM | 0.5 to 5 µM | 0.5 to 5 µM
CN1CCC(N2C(=O)c3cc4nc(-c5c(NC[C@@H](O)COc6cccc7ccccc67)cc[nH]c5=O)[nH]c4cc3C2=O)CC1 [compound 87] | > 15 µM | 0.5 to 5 µM | < 0.5 µM
CN1CCC(N2C(=O)c3cc4nc(-c5c(N[C@H](CO)Cc6c[nH]cn6)cc[nH]c5=O)[nH]c4cc3C2=O)CC1 [compound 2] | > 15 µM | > 15 µM | > 15 µM
Cc1ccc(OCC(O)CNc2cc[nH]c(=O)c2-c2nc3cc4c(cc3[nH]2)C(=O)N(C2CCN(C)CC2)C4=O)c(C)c1 (stereo not drawn) [compound 15] |  | 0.5 to 5 µM | < 0.5 µM
Cc1ccc(OC[C@H](O)CNc2cc[nH]c(=O)c2-c2nc3cc4c(cc3[nH]2)C(=O)N(C2CCN(C)CC2)C4=O)c(C)c1 [compound 59] | 0.5 to 5 µM | 0.5 to 5 µM | < 0.5 µM
Cc1ccc(OC[C@@H](O)CNc2cc[nH]c(=O)c2-c2nc3cc4c(cc3[nH]2)C(=O)N(C2CCN(C)CC2)C4=O)c(C)c1 [compound 64] | 5 to 15 µM | 0.5 to 5 µM | < 0.5 µM
Cc1cc(C)n(C[C@H](O)CNc2cc[nH]c(=O)c2-c2nc3cc4c(cc3[nH]2)C(=O)N(C2CCN(C)CC2)C4=O)n1 [compound 92] | > 15 µM | 5 to 15 µM | 5 to 15 µM
COc1cccc(OCC(O)CNc2cc[nH]c(=O)c2-c2nc3cc4c(cc3[nH]2)C(=O)N(C2CCN(C)CC2)C4=O)c1 (stereo not drawn) [compound 6] |  | 0.5 to 5 µM | < 0.5 µM
Cc1ccc(OC[C@H](O)CNc2cc[nH]c(=O)c2-c2nc3c(C)c4c(cc3[nH]2)C(=O)N(C2CCN(C)CC2)C4)c(C)c1 [compound 139] |  | 0.5 to 5 µM | < 0.5 µM
CN1CCC(N2C(=O)c3cc4nc(-c5c(NC[C@@H](O)COc6c(F)ccc(Cl)c6F)cc[nH]c5=O)[nH]c4cc3C2=O)CC1 [compound 95] | > 15 µM | 0.5 to 5 µM | < 0.5 µM
Cc1ncsc1CCN1C(=O)c2cc3nc(-c4c(NC[C@@H](O)c5cccc(Cl)c5)cc[nH]c4=O)[nH]c3cc2C1=O [compound 32] | 0.5 to 5 µM | > 15 µM | 5 to 15 µM
CN1CCC(N2C(=O)c3cc4nc(-c5c(NC[C@@H](O)COc6cccc(-c7ccccc7)c6)cc[nH]c5=O)[nH]c4cc3C2=O)CC1 [compound 89] | 5 to 15 µM | 0.5 to 5 µM | 0.5 to 5 µM
Cc1cc(C)c(OC[C@H](O)CNc2cc[nH]c(=O)c2-c2nc3cc4c(cc3[nH]2)C(=O)N(C2CCN(C)CC2)C4=O)c(CS(C)(=O)=O)c1 [compound 84] | > 15 µM | 0.5 to 5 µM | 0.5 to 5 µM
CN1CCC(N2C(=O)c3cc4nc(-c5c(NC[C@@H](O)COc6ccc7ccccc7c6)cc[nH]c5=O)[nH]c4cc3C2=O)CC1 [compound 88] | 5 to 15 µM | 0.5 to 5 µM | 0.5 to 5 µM
Cc1ccc(OC[C@H](O)CNc2cc[nH]c(=O)c2-c2nc3c(C)c4c(cc3[nH]2)C(=O)N(C2CCN(C)CC2)C4=O)c(C)c1 [compound 110] | 5 to 15 µM | 0.5 to 5 µM | < 0.5 µM

The next lines start with the values.

IC50 (Ba/F3) | IC50 (Jak2) | IC50 (IGF1R tyrosine kinase) | Structure (SMILES)
5 to 15 µM | 0.5 to 5 µM | 0.5 to 5 µM | Cc1ccc(Cl)c(C)c1OC[C@H](O)CNc1cc[nH]c(=O)c1-c1nc2cc3c(cc2[nH]1)C(=O)N(C1CCN(C)CC1)C3=O [compound 111]
> 15 µM | 0.5 to 5 µM | > 15 µM | Cc1ccc(OCC(O)CNc2cc[nH]c(=O)c2-c2nc3cc4c(cc3[nH]2)C(=O)N(CC2CCN(CCO)CC2)C4=O)c(C)c1 (stereo not drawn) [compound 37]
> 15 µM | 0.5 to 5 µM | < 0.5 µM | Cc1c(Cl)cccc1OC[C@H](O)CNc1cc[nH]c(=O)c1-c1nc2cc3c(cc2[nH]1)C(=O)N(C1CCN(C)CC1)C3=O [compound 94]
 | 0.5 to 5 µM | < 0.5 µM | CN1CCC(N2C(=O)c3cc4nc(-c5c(NC[C@@H](O)c6cccc(Cl)c6)cc[nH]c5=O)[nH]c4cc3C2=O)CC1 [compound 1]
 | 0.5 to 5 µM | < 0.5 µM | CCN1CCC(N2C(=O)c3cc4nc(-c5c(NC[C@@H](O)COc6ccc(C)cc6C)cc[nH]c5=O)[nH]c4cc3C2=O)CC1 [compound 143]
 | 0.5 to 5 µM | < 0.5 µM | Cc1ccc(OC[C@H](O)CNc2cc[nH]c(=O)c2-c2nc3cc4c(cc3[nH]2)C(=O)N(C2CCNCC2)C4=O)c(C)c1 [compound 142]
> 15 µM | 0.5 to 5 µM | 5 to 15 µM | CN1CCC(N2C(=O)c3cc4nc(-c5c(NC[C@@H](O)COc6cccc(OC(F)(F)C(F)F)c6)cc[nH]c5=O)[nH]c4cc3C2=O)CC1 [compound 91]
> 15 µM | 0.5 to 5 µM | 0.5 to 5 µM | CN1CCC(N2C(=O)c3cc4nc(-c5c(NC[C@@H](O)COc6cccc(C(F)(F)F)c6)cc[nH]c5=O)[nH]c4cc3C2=O)CC1 [compound 97]
 | < 0.5 µM | < 0.5 µM | Cc1ccc(OC[C@H](O)CNc2cc[nH]c(=O)c2-c2nc3cc4c(cc3[nH]2)CN(C2CCN(C)CC2)C4=O)c(C)c1 [compound 130]
 | < 0.5 µM | < 0.5 µM | CCc1cc(C)ccc1OC[C@H](O)CNc1cc[nH]c(=O)c1-c1nc2cc3c(cc2[nH]1)CN(C1CCN(C)CC1)C3=O [compound 141]
 | < 0.5 µM | < 0.5 µM | Cc1ccc(OC[C@H](O)CNc2cc[nH]c(=O)c2-c2nc3c(C)c4c(cc3[nH]2)CN(C2CCN(C)CC2)C4=O)c(C)c1 [compound 140]
 | < 0.5 µM | < 0.5 µM | CCN1CCC(N2Cc3cc4nc(-c5c(NC[C@@H](O)COc6ccc(C)cc6C)cc[nH]c5=O)[nH]c4cc3C2=O)CC1 [compound 144]
 | < 0.5 µM | < 0.5 µM | Cc1ccc(OC[C@H](O)CNc2cc[nH]c(=O)c2-c2nc3cc4c(c(C)c3[nH]2)CN(C2CCN(C)CC2)C4=O)c(C)c1 [compound 132]
